Experiments:
Assay type in all cases: cell-based
T-47D = assay: NCI 60 antitumor screening (single dose / five doses); details: Homo sapiens, T47D; for inhibition at 10 µM: T-47D (breast cancer), single dose 10 μM, read-out: Growth inhibition percentage (GI %); for GI50: T-47D, five doses (0.01–100 μM), read-out: GI50
HCT-116 = assay: as above; details: Homo sapiens; for inhibition at 10 µM: HCT-116 (colon cancer), single dose 10 μM, read-out: Growth inhibition percentage (GI %); for GI50: HCT-116, five doses (0.01–100 μM), read-out: GI50
LOX IMVI = assay: as above; details: Homo sapiens; for inhibition at 10 µM: LOX IMVI (melanoma), single dose 10 μM, read-out: Growth inhibition percentage (GI %); for GI50: LOX IMVI, five doses (0.01–100 μM), read-out: GI50
BT-549 = assay: as above; details: Homo sapiens; for inhibition at 10 µM: BT-549 (breast cancer), single dose 10 μM, read-out: Growth inhibition percentage (GI %); for GI50: BT-549, five doses (0.01–100 μM), read-out: GI50
SNB-75 = assay: as above; details: Homo sapiens; for inhibition at 10 µM: SNB-75 (CNS cancer), single dose 10 μM, read-out: Growth inhibition percentage (GI %); for GI50: SNB-75, five doses (0.01–100 μM), read-out: GI50
NCI/ADR-RES = assay: as above; details: Homo sapiens; for inhibition at 10 µM: NCI/ADR-RES (ovarian cancer), single dose 10 μM, read-out: Growth inhibition percentage (GI %); for GI50: NCI/ADR-RES, five doses (0.01–100 μM), read-out: GI50
CAKI-1 = assay: NCI 60 antitumor screening (single dose); details: Homo sapiens; CAKI-1 (renal cancer), single dose 10 μM; read-out: Growth inhibition percentage (GI %)
Description: (§1) Initially, the anticancer effects of target compounds have been assessed at a single (10 μM) dose. The obtained data have been reported as mean-graph of the percent growth (G%) of the treated cancer cells. Percentage growth inhibition (GI%) is calculated (100 − G%) and pronounced in Table 1. […] Target compounds in series (III) with manipulated linkers disclosed lower potency. Superiorly, eight s-triazine derivatives from the three series (6a, 6c, 6d, 7a, 7g, 7i, 7l, and 8b) have shown potent broad-spectrum anticancer activity against most the examined cell lines, whereas most of the remaining triazine derivatives, 20 derivatives, have exerted selective anti-proliferative actions towards certain cancer cell lines (Supplementary).
(§2) The antitumor screening was performed for 60 human cancer cell lines under the protocol of NCI (www.dtp.nci.nih.gov), the Drug Evaluation Branch, Bethesda, MD. All submitted compounds were nominated based on the degree of structural diversity and computer modelling techniques for evaluation of their anticancer activity. The screening process for antineoplastic activity passes through two successive levels, starting with the assessment of target compounds at a single dose of 10 μM against 60 cancer cell lines on nine types of human tumours. These experiments were done on a triplicate following. The output from the single‐dose screening was covered as a mean graph, and then, analysed by the COMPARE program. Finally, the compounds which disclosed subpanel cancer cell growth (G %) equal to or less than 10% in at least eight cancer cell lines get to pass the assessment against the 60 cell lines at five doses (0.01–100 μM). By using GraphPad Prism version 9.0 (Graphpad Software Inc., La Jolla, CA), GI50, TGI, as well as LC50 dose‐response parameters were computed and presented for each compound (Supplementary information)[55–57].

M14 = assay: NCI 60 antitumor screening (single dose); details: Homo sapiens; M14 (melanoma), single dose 10 μM; read-out: Growth inhibition percentage (GI %)
Description: as §1, §2

HS 578T = assay: NCI 60 antitumor screening (single dose); details: Homo sapiens; HS 578T (breast cancer), single dose 10 μM; read-out: Growth inhibition percentage (GI %)
Description: as §1, §2

U251 = assay: NCI 60 antitumor screening (single dose); details: Homo sapiens, U-251; U251 (CNS cancer), single dose 10 μM; read-out: Growth inhibition percentage (GI %)
Description: as §1, §2

MCF7 = assay: NCI 60 antitumor screening (single dose); details: Homo sapiens; MCF7 (breast cancer), single dose 10 μM; read-out: Growth inhibition percentage (GI %)
Description: as §1, §2

A549/ATCC = assay: NCI 60 antitumor screening (single dose); details: Homo sapiens; A549/ATCC (non-small cell lung cancer), single dose 10 μM; read-out: Growth inhibition percentage (GI %)
Description: as §1, §2

NCI-H322M = assay: NCI 60 antitumor screening (single dose); details: Homo sapiens; NCI-H322M (non-small cell lung cancer), single dose 10 μM; read-out: Growth inhibition percentage (GI %)
Description: as §1, §2

HOP-62 = assay: NCI 60 antitumor screening (single dose); details: Homo sapiens; HOP-62 (non-small cell lung cancer), single dose 10 μM; read-out: Growth inhibition percentage (GI %)
Description: as §1, §2

OVCAR-4 = assay: NCI 60 antitumor screening (single dose); details: Homo sapiens; OVCAR-4 (ovarian cancer), single dose 10 μM; read-out: Growth inhibition percentage (GI %)
Description: as §1, §2

TK-10 = assay: NCI 60 antitumor screening (single dose); details: Homo sapiens; TK-10 (renal cancer), single dose 10 μM; read-out: Growth inhibition percentage (GI %)
Description: as §1, §2

SNB-19 = assay: NCI 60 antitumor screening (single dose); details: Homo sapiens; SNB-19 (CNS cancer), single dose 10 μM; read-out: Growth inhibition percentage (GI %)
Description: as §1, §2

SK-OV-3 = assay: NCI 60 antitumor screening (single dose); details: Homo sapiens; SK-OV-3 (ovarian cancer), single dose 10 μM; read-out: Growth inhibition percentage (GI %)
Description: as §1, §2

HCC-2998 = assay: NCI 60 antitumor screening (single dose); details: Homo sapiens; HCC-2998 (colon cancer), single dose 10 μM; read-out: Growth inhibition percentage (GI %)
Description: as §1, §2

NCI-H522 = assay: NCI 60 antitumor screening (single dose); details: Homo sapiens; NCI-H522 (non-small cell lung cancer), single dose 10 μM; read-out: Growth inhibition percentage (GI %)
Description: as §1, §2

PC-3 = assay: NCI 60 antitumor screening (single dose); details: Homo sapiens; PC-3 (prostate cancer), single dose 10 μM; read-out: Growth inhibition percentage (GI %)
Description: as §1, §2

OVCAR-8 = assay: NCI 60 antitumor screening (single dose); details: Homo sapiens; OVCAR-8 (ovarian cancer), single dose 10 μM; read-out: Growth inhibition percentage (GI %)
Description: as §1, §2

NCI-H23 = assay: NCI 60 antitumor screening (single dose); details: Homo sapiens; NCI-H23 (non-small cell lung cancer), single dose 10 μM; read-out: Growth inhibition percentage (GI %)
Description: as §1, §2

KM 12 = assay: NCI 60 antitumor screening (single dose); details: Homo sapiens, KM12; KM 12 (colon cancer), single dose 10 μM; read-out: Growth inhibition percentage (GI %)
Description: as §1, §2

NCI-H226 = assay: NCI 60 antitumor screening (single dose); details: Homo sapiens; NCI-H226 (non-small cell lung cancer), single dose 10 μM; read-out: Growth inhibition percentage (GI %)
Description: as §1, §2

OVCAR-5 = assay: NCI 60 antitumor screening (single dose); details: Homo sapiens; OVCAR-5 (ovarian cancer), single dose 10 μM; read-out: Growth inhibition percentage (GI %)
Description: as §1, §2

DU-145 = assay: NCI 60 antitumor screening (single dose / five doses); details: Homo sapiens; for inhibition at 10 µM: DU-145 (prostate cancer), single dose 10 μM, read-out: Growth inhibition percentage (GI %); for GI50: DU-145, five doses (0.01–100 μM), read-out: GI50

Structure (SMILES)	inhibition at 10 µM (T-47D)	inhibition at 10 µM (HCT-116)	inhibition at 10 µM (LOX IMVI)	inhibition at 10 µM (SNB-75)	inhibition at 10 µM (NCI/ADR-RES)	inhibition at 10 µM (CAKI-1)	inhibition at 10 µM (M14)	inhibition at 10 µM (HS 578T)	inhibition at 10 µM (U251)	inhibition at 10 µM (MCF7)	inhibition at 10 µM (A549/ATCC)	inhibition at 10 µM (NCI-H322M)	inhibition at 10 µM (HOP-62)	inhibition at 10 µM (OVCAR-4)	inhibition at 10 µM (TK-10)	inhibition at 10 µM (SNB-19)	inhibition at 10 µM (SK-OV-3)	inhibition at 10 µM (HCC-2998)	inhibition at 10 µM (NCI-H522)	inhibition at 10 µM (PC-3)	also measured
Oc1ccccc1/C=N/Nc1nc(N/N=C/c2ccccc2O)nc(N2CCOCC2)n1 [compound 6a, 2-[(1e)-(2-{4-[(E)-2-[(2-Hydroxyphenyl)methylidene]hydrazin-1-yl]-6-(morpholin-4-yl)-1,3,5-triazin-2-yl}hydrazin-1-ylidene)methyl]phenol]	53.9%	80.8%	96%	104%	77.1%	95.4%	62.4%	53%	78%	60%	87%	55.5%	74.3%	88.2%	52%	58.3%	88.1%	41.1%	39.1%	75.9%	GI50 (T-47D): 3340 nM; GI50 (HCT-116): 820 nM; GI50 (LOX IMVI): 280 nM; inhibition at 10 µM (BT-549): 23.7%; GI50 (BT-549): 5190 nM; GI50 (SNB-75): 1820 nM; GI50 (NCI/ADR-RES): 690 nM; inhibition at 10 µM (OVCAR-8): 87.3%; inhibition at 10 µM (NCI-H23): 58.5%; inhibition at 10 µM (KM 12): 47.3%; inhibition at 10 µM (NCI-H226): 76.7%; inhibition at 10 µM (OVCAR-5): 63%; inhibition at 10 µM (DU-145): 64.5%; GI50 (DU-145): 6090 nM
Brc1cccc(/C=N/Nc2nc(N/N=C/c3cccc(Br)c3)nc(N3CCOCC3)n2)c1 [compound 6c, 2,4-Bis[(E)-2-[(3-bromophenyl)methylidene]hydrazin-1-yl]-6-(morpholin-4-yl)-1,3,5-triazine]	43.5%	78.8%	94.8%	-7.5%	58.2%	84.6%	68.3%	33.8%	57.3%	77.9%	57.4%	47.2%	47.7%	45.8%	33.2%	22.1%	7.13%	68.5%	66.5%	63.5%	GI50 (T-47D): 3940 nM; GI50 (HCT-116): 780 nM; GI50 (LOX IMVI): 2660 nM; inhibition at 10 µM (BT-549): 47.3%; GI50 (BT-549): 3540 nM; GI50 (SNB-75): 4540 nM; GI50 (NCI/ADR-RES): 3250 nM; inhibition at 10 µM (OVCAR-8): 62.6%; inhibition at 10 µM (NCI-H23): 56.9%; inhibition at 10 µM (KM 12): 69.7%; inhibition at 10 µM (NCI-H226): 56.7%; inhibition at 10 µM (OVCAR-5): 27.6%; inhibition at 10 µM (DU-145): 72.7%; GI50 (DU-145): 1310 nM
Oc1ccccc1/C=N/Nc1nc(N/N=C/c2ccccc2O)nc(N2CCCCC2)n1 [compound 7a, 2-[(1e)-(2-{4-[(E)-2-[(2-Hydroxyphenyl)methylidene]hydrazin-1-yl]-6-(piperidin-1-yl)-1,3,5-triazin-2-yl}hydrazin-1-ylidene)methyl] phenol]	51.8%	22%	60.3%	25.6%	81%	24.5%	53.6%	23.4%	49.6%	64.3%	52.2%	41.1%	44.2%	70.9%	2.29%	44%	12%	60.4%	52.5%	55.2%	inhibition at 10 µM (OVCAR-8): 50.4%; inhibition at 10 µM (NCI-H23): 44.2%; inhibition at 10 µM (KM 12): 52.5%; inhibition at 10 µM (NCI-H226): 18.2%; inhibition at 10 µM (OVCAR-5): 28.4%; inhibition at 10 µM (DU-145): 45.2%
